The record followed here is patent publication US20200189989A1, “APPLICATION OF SYRINGIC ACID IN PROMOTING NITRIFICATION INHIBITION ACTIVITY OF DECANEDIOL” (Institute of Soil Science, Chinese Academy of Sciences, priority 2018, published 2020).

Holding throughout (format): cell-based
The test system of one assay is Nitrosomonas. The assay can be described thus: Nitrosification inhibition activity of syringic acid alone and as promoter of 1,9-decanediol (summary statement). The text has this: The root exudates of 19 rice varieties are collected, concentrated, and determined for their nitrosification inhibition activities by using Nitrosomonas europaea. The varieties with significant effects are further screened out from them, to select a variety of which the root exudate has a significant inhibitory effect and a variety of which the root exudate has an effect opposite to the former, and then they are subjected to GC/MS identification for components thereof. By component comparison of the two varieties, syringic acid (4-Hydroxy 3,5-dimethoxybenzoic acid, with the molecular weight of 198.18) is identified in the root exudate of the rice variety Wuyunjing 7 having a significant inhibitory effect.

Assay [1] has as its system Nitrosomonas europaea (NBRC 14298). The assay can be described thus: Nitrification activity inhibition experiment, Nitrosomonas europaea (NO2- production, improved Griess method). To be noted: 2 hours, 25° C., dark. How it is done:
Standard: a syringic acid standard was purchased from Sigma-Aldrich (St. Louis, Mo., USA), and the solid powder thereof was weighed and dissolved in DMSO. A 1,9-decanediol standard was purchased from WuXi AppTec, and the solid powder thereof was dissolved in DMSO while frozen over the dry ice (the 1,9-decanediol standard was a viscous liquid substance under normal temperature). Microbial strains: Nitrosomonas europaea (NBRC 14298) was purchased from Biological Resource Center, NITE, Japan. Microbial culture medium: a HEPES medium, which contained 2.5 g of (NH4)2SO4, 0.5 g of KH2PO4, 11.92 g of HEPES, 0.5 g of NaHCO3, 100 mg of MgSO4.7H2O, 5 mg of CaCl2.2H2O, and 75 mg of Fe-EDTA per 1 L liquid medium, at pH 7.8-8.0. Culture of microorganisms: Nitrosomonas europaea was inoculated in the HEPES medium and cultured at 30° C. and 200 rpm under a dark condition (aerobic), and the Nitrosomonas europaea enters a stable period 7-9 days after transfer each time. Nitrification activity inhibition experiment: The bacterial solution cultured for 7 days was collected, centrifuged at 5000 g for 20 min, and resuspended in a fresh and sterile HEPES medium until the OD600 reached about 1.0, with a concentration multiple of 40-50 times. Taken was a 1.5 mL sterile centrifuge tube, and it was sequentially added with 195 μL of sterile water, 5 μL of different concentrations of solutions of syringic acid and 1,9-decanediol in DMSO, 100 μL of the fresh and sterile HEPES medium, and 200 μL of a resuspended bacterial solution, and then cultured in a water bath at 25° C. under a dark condition for 2 hours. Then the mixed system was added with 20 μL of 0.1M Allylthiourea to terminate the nitrosification. […] of the reacted mixture was added into a 10 mL colorimetric tube, diluted to about 5 mL with deionized water, added with 1 mL of a sulfanilic acid solution, shaken well and then subjected to standing for 2-8 min, then added with 1 mL of a hydrochloric acid N-(1-naphthyl)-ethylenediamine solution, shaken well, diluted to 10 mL with water to obtain a constant volume. Deionized water was used as a reference, and the absorbances were determined at a wavelength of 540 nm. The reticle of NO2^− was made in the same manner to quantify the NO2^− generated in the sample system, and the sample inhibition rate was calculated by the following formula. This determination method was an improved Griess method, which could be referred to the national standard “determination of nitrite in the wet precipitation -N-(1-naphthyl)-1,2-diaminoethane spectrophotometry”. Nitrosification inhibition rate (%)=(1-the produced amount of NO2^− of the sample/the produced amount of NO2^− of a blank)×100%
(In general: Griess reagent forms a coloured azo dye with nitrite.)

In assay [2] the test system is Nitrosomonas stercoris (NBRC 110753). The assay can be described thus: Nitrification activity inhibition experiment, Nitrosomonas stercoris (NO2- production, improved Griess method). To be noted: 2 hours, 25° C., dark. On the procedure:
Nitrification activity inhibition experiment: The bacterial solution cultured for 7 days was collected, centrifuged at 5000 g for 20 min, and resuspended in a fresh and sterile HEPES medium until the OD600 reached about 1.0, with a concentration multiple of 40-50 times. Taken was a 1.5 mL sterile centrifuge tube, and it was sequentially added with 195 μL of sterile water, 5 μL of different concentrations of solutions of syringic acid and 1,9-decanediol in DMSO, 100 μL of the fresh and sterile HEPES medium, and 200 μL of a resuspended bacterial solution, and then cultured in a water bath at 25° C. under a dark condition for 2 hours. Then the mixed system was added with 20 μL of 0.1M Allylthiourea to terminate the nitrosification. […] of the reacted mixture was added into a 10 mL colorimetric tube, diluted to about 5 mL with deionized water, added with 1 mL of a sulfanilic acid solution, shaken well and then subjected to standing for 2-8 min, then added with 1 mL of a hydrochloric acid N-(1-naphthyl)-ethylenediamine solution, shaken well, diluted to 10 mL with water to obtain a constant volume. Deionized water was used as a reference, and the absorbances were determined at a wavelength of 540 nm. The reticle of NO2^− was made in the same manner to quantify the NO2^− generated in the sample system, and the sample inhibition rate was calculated by the following formula. This determination method was an improved Griess method, which could be referred to the national standard “determination of nitrite in the wet precipitation -N-(1-naphthyl)-1,2-diaminoethane spectrophotometry”. Nitrosification inhibition rate (%)=(1-the produced amount of NO2^− of the sample/the produced amount of NO2^− of a blank)×100% The selection and formulation of the standard were the same as those of Embodiment 1. Microbial Strains: Nitrosomonas stercoris (NBRC 110753) was purchased from Biological Resource Center, NITE, Japan. The microbial culture medium and microbial culture were the same as those of Embodiment 1. Nitrification activity inhibition experiment: The bacterial solution of Nitrosomonas stercoris cultured for 7 days was collected, centrifuged at 5000 g for 20 min, and resuspended in a fresh and sterile HEPES medium until the OD600 reached about 1.0, with a concentration multiple of 40-50 times. Taken was a 1.5 mL sterile centrifuge tube, and it was sequentially added with 195 μL of sterile water, 5 μL of different concentrations of solutions of syringic acid and 1,9-decanediol in DMSO, 100 μL of the fresh and sterile HEPES medium, and 200 μL of a resuspended bacterial solution, and then cultured in a water bath at 25° C. under a dark condition for 2 hours. Then the mixed system was added with 20 μL of 0.1M Allylthiourea to terminate the nitrosification. […]

Consider `COc1cc(C(=O)O)cc(OC)c1O` [syringic acid, 4-Hydroxy 3,5-dimethoxybenzoic acid], for which the “inhibitory activity to the Nitrosomonas” value in the assay with Nitrosomonas (syringic acid alone) is listed as “no significant inhibitory activity”. For the same compound, the “effect concentration for promoting the inhibition of 1,9-decanediol to the nitrosification activity of the Nitrosomonas” value with Nitrosomonas (syringic acid combined with 1,9-decanediol) was 10 to 500 µg/mL.

As to `CC(O)CCCCCCCCO` (stereo not shown) [1,9-decanediol], the “inhibition rate for the nitrosification process of Nitrosomonas europaea” value in assay [1] (1,9-decanediol added alone) worked out at 41.2%. For the same compound, the nitrification inhibition rate in assay [1] (1,9-decanediol plus syringic acid at 10 μ·mL^−1) amounted to 51.7%; in assay [1] (1,9-decanediol plus syringic acid at 100 μ·mL^−1), 61.1%; in assay [1] (1,9-decanediol plus syringic acid at 500 μ·mL^−1), 69.2%. Also, the “inhibition rate (nitrification inhibition effect on Nitrosomonas stercoris)” value in assay [2] (1,9-decanediol plus 10 μg·mL^−1 of syringic acid) came to 60.5%; in assay [2] (1,9-decanediol plus 100 μg·mL^−1 of syringic acid), 70.2%; in assay [2] (1,9-decanediol plus 500 μg·mL^−1 of syringic acid) it was 89.9%; in assay [2] (1,9-decanediol without syringic acid), 51.5%.
